Assay results published in patent publication US20150105252A1, “SUBSTITUTED PYRAZOLES AS HERBICIDES” (E I DU PONT DE NEMOURS AND COMPANY, priority 2013, published 2015).

Columns and labels:
barnyardgrass [1] = experiment: Test A preemergence; assay type: in vivo, Echinochloa crus-galli; settings: preemergence
Procedure, shortened: (§1)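 Seeds were sown in a loam soil–sand blend and given a directed soil spray preemergence; postemergence plants at 2–10 cm, one- to two-leaf stage, were sprayed with compound in non-phytotoxic solvent with surfactant. After about 10 days in a greenhouse, injury was visually rated against untreated controls (0 = no effect, 100 = complete control).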

crabgrass, large [2] = experiment: Test A preemergence; assay type: in vivo, Digitaria sanguinalis; settings: preemergence; for Crabgrass, Large plant response rating (0 to 100 scale): 125 g ai/ha, visual injury approx. 10 days after treatment; for Crabgrass, Large plant response rating: 500 g ai/ha, visual injury after approx. 10 days, 0 to 100 scale (0 no effect, 100 complete control)
Procedure, shortened: as §1

foxtail, giant [3] = experiment: Test A preemergence; assay type: in vivo, Setaria faberii; settings: preemergence; for Foxtail, Giant plant response rating (0 to 100 scale): 125 g ai/ha, visual injury approx. 10 days after treatment; for Foxtail, Giant plant response rating: 500 g ai/ha, visual injury after approx. 10 days, 0 to 100 scale (0 no effect, 100 complete control)
Procedure, shortened: as §1

morningglory [4] = experiment: Test A preemergence; assay type: in vivo, Ipomoea spp.; settings: preemergence; for Morningglory plant response rating (0 to 100 scale): 125 g ai/ha, visual injury approx. 10 days after treatment; for Morningglory plant response rating: 500 g ai/ha, visual injury after approx. 10 days, 0 to 100 scale (0 no effect, 100 complete control)
Procedure, shortened: as §1

pigweed [5] = experiment: Test A preemergence; assay type: in vivo, Amaranthus retroflexus; settings: preemergence; for Pigweed plant response rating (0 to 100 scale): 125 g ai/ha, visual injury approx. 10 days after treatment; for Pigweed plant response rating: 500 g ai/ha, visual injury after approx. 10 days, 0 to 100 scale (0 no effect, 100 complete control)
Procedure, shortened: as §1

velvetleaf [6] = experiment: Test A preemergence; assay type: in vivo, Abutilon theophrasti; settings: preemergence; for Velvetleaf plant response rating (0 to 100 scale): 125 g ai/ha, visual injury approx. 10 days after treatment; for Velvetleaf plant response rating: 500 g ai/ha, visual injury after approx. 10 days, 0 to 100 scale (0 no effect, 100 complete control)
Procedure, shortened: as §1

wheat [7] = experiment: Test A preemergence; assay type: in vivo, Triticum aestivum; settings: preemergence; for Wheat plant response rating (0 to 100 scale): 125 g ai/ha, visual injury approx. 10 days after treatment; for Wheat plant response rating: 500 g ai/ha, visual injury after approx. 10 days, 0 to 100 scale (0 no effect, 100 complete control)
Procedure, shortened: as §1

corn [8] = experiment: Test A preemergence; assay type: in vivo, Zea mays; settings: preemergence; for Corn plant response rating (0 to 100 scale): 125 g ai/ha, visual injury approx. 10 days after treatment; for Corn plant response rating: 500 g ai/ha, visual injury after approx. 10 days, 0 to 100 scale (0 no effect, 100 complete control)
Procedure, shortened: as §1

barnyardgrass [9] = experiment: Test A postemergence; assay type: in vivo, Echinochloa crus-galli
Procedure, shortened: as §1

crabgrass, large [10] = experiment: Test A postemergence; assay type: in vivo, Digitaria sanguinalis
Procedure, shortened: as §1

foxtail, giant [11] = experiment: Test A postemergence; assay type: in vivo, Setaria faberii
Procedure, shortened: as §1

morningglory [12] = experiment: Test A postemergence; assay type: in vivo, Ipomoea spp.
Procedure, shortened: as §1

pigweed [13] = experiment: Test A postemergence; assay type: in vivo, Amaranthus retroflexus
Procedure, shortened: as §1

velvetleaf [14] = experiment: Test A postemergence; assay type: in vivo, Abutilon theophrasti
Procedure, shortened: as §1

wheat [15] = experiment: Test A postemergence; assay type: in vivo, Triticum aestivum
Procedure, shortened: as §1

corn [16] = experiment: Test A postemergence; assay type: in vivo, Zea mays
Procedure, shortened: as §1

rice = experiment: Test B flood; assay type: in vivo, Oryza sativa; settings: 250 g ai/ha, visual rating on 0 to 100 scale (0 no effect, 100 complete control), 13 to 15 days
Procedure, shortened: (§2)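 Paddy-water application: seedlings at 2-leaf stage, flood depth 3 cm maintained for the test duration. Evaluation after 13–15 days in the greenhouse by eye relative to controls; 0–100 scale.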

sedge, umbrella = experiment: Test B flood; assay type: in vivo, Cyperus difformis; settings: 250 g ai/ha, visual rating on 0 to 100 scale (0 no effect, 100 complete control), 13 to 15 days
Procedure, shortened: as §2

ducksalad = experiment: Test B flood; assay type: in vivo, Heteranthera limosa; settings: 250 g ai/ha, visual rating on 0 to 100 scale (0 no effect, 100 complete control), 13 to 15 days
Procedure, shortened: as §2

barnyardgrass [17] = experiment: Test B flood; assay type: in vivo, Echinochloa crus-galli; settings: 250 g ai/ha, visual rating on 0 to 100 scale (0 no effect, 100 complete control), 13 to 15 days
Procedure, shortened: as §2

[18] = 125 g ai/ha, visual injury, 0 to 100 scale, approx. 10 days
[19] = 500 g ai/ha, visual injury after approx. 10 days, 0 to 100 scale (0 no effect, 100 complete control)
[20] = Postemergence, 500 g ai/ha, 0 to 100 scale (0 no effect, 100 complete control)
[21] = postemergence, 125 g ai/ha, about 10 days, visual rating on 0 to 100 scale (0 no effect, 100 complete control)

Compound	Barnyardgrass plant response rating (barnyardgrass [1]; [18])	Barnyardgrass plant response rating (barnyardgrass [1]; [19])	Crabgrass, Large plant response rating (0 to 100 scale) (crabgrass, large [2])	Crabgrass, Large plant response rating (crabgrass, large [2])	Foxtail, Giant plant response rating (0 to 100 scale) (foxtail, giant [3])	Foxtail, Giant plant response rating (foxtail, giant [3])	Morningglory plant response rating (0 to 100 scale) (morningglory [4])	Morningglory plant response rating (morningglory [4])	Pigweed plant response rating (0 to 100 scale) (pigweed [5])	Pigweed plant response rating (pigweed [5])	Velvetleaf plant response rating (0 to 100 scale) (velvetleaf [6])	Velvetleaf plant response rating (velvetleaf [6])	Wheat plant response rating (0 to 100 scale) (wheat [7])	Wheat plant response rating (wheat [7])	Corn plant response rating (0 to 100 scale) (corn [8])	Corn plant response rating (corn [8])	Barnyardgrass plant response rating (barnyardgrass [9]; [20])	Barnyardgrass plant response rating (barnyardgrass [9]; [21])	Crabgrass, Large plant response rating (crabgrass, large [10]; [20])	Crabgrass, Large plant response rating (crabgrass, large [10]; [21])	further results
CCCCc1cc(C(=O)NC2CC2)nn1Cc1ccnc(C(F)(F)F)c1 [Compound 151]	0	60	80	100	50	100	0	30	70	100	0	70	0	10	0	0	50	10	80	30	Foxtail, Giant plant response rating (foxtail, giant [11]; [20]): 70; Foxtail, Giant plant response rating (foxtail, giant [11]; [21]): 20; Morningglory plant response rating (morningglory [12]; [20]): 90; Morningglory plant response rating (morningglory [12]; [21]): 50; Pigweed plant response rating (pigweed [13]; [20]): 100; Pigweed plant response rating (pigweed [13]; [21]): 70; Velvetleaf plant response rating (velvetleaf [14]; [20]): 60; Velvetleaf plant response rating (velvetleaf [14]; [21]): 30; Wheat plant response rating (wheat [15]; [20]): 10; Wheat plant response rating (wheat [15]; [21]): 0; Corn plant response rating (corn [16]; [20]): 50; Corn plant response rating (corn [16]; [21]): 10; Plant response rating, Rice (rice): 0; Plant response rating, Sedge, Umbrella (sedge, umbrella): 60; Plant response rating, Ducksalad (ducksalad): 0; Plant response rating, Barnyardgrass (barnyardgrass [17]): 0
O=C(NC1CC1)c1cc(Br)n(Cc2cccc(C(F)(F)F)c2)n1 [Compound 160]	0	10	50	90	0	60	0	0	50	90	0	10	0	0	0	0	30	0	40	20	Foxtail, Giant plant response rating (foxtail, giant [11]; [20]): 30; Foxtail, Giant plant response rating (foxtail, giant [11]; [21]): 20; Morningglory plant response rating (morningglory [12]; [20]): 20; Morningglory plant response rating (morningglory [12]; [21]): 0; Pigweed plant response rating (pigweed [13]; [20]): 80; Pigweed plant response rating (pigweed [13]; [21]): 50; Velvetleaf plant response rating (velvetleaf [14]; [20]): 60; Velvetleaf plant response rating (velvetleaf [14]; [21]): 30; Wheat plant response rating (wheat [15]; [20]): 0; Wheat plant response rating (wheat [15]; [21]): 0; Corn plant response rating (corn [16]; [20]): 20; Corn plant response rating (corn [16]; [21]): 0; Plant response rating, Rice (rice): 0; Plant response rating, Sedge, Umbrella (sedge, umbrella): 0; Plant response rating, Ducksalad (ducksalad): 0; Plant response rating, Barnyardgrass (barnyardgrass [17]): 0
